In a melting point compilation (Tetko et al.; mined from patent text by program, amines drawn as free bases though some values may be those of a salt) one finds melting point data, which are given here for 84 molecules.

The melting point is the temperature, or range, at which the solid turns liquid.

In turn, `O=c1c2cc(O)ccc2nc(C(S)c2ncnc3[nH]cnc23)n1-c1ccccc1Cl` (centres undefined) registered a melting point of 186 to 214 °C.

For `O=C1C=C(NC(=O)C(=O)c2cn(Cc3c(F)c(F)c(F)c(F)c3F)c3ccccc23)CO1`, the melting point lay in the range of 280 to 282 °C.

Molecule `CCCCc1nc2ccc(C(=O)OC)cc2n1Cc1ccc(-c2ccccc2-c2nnn[nH]2)cc1` yielded a melting point of 224 to 225 °C.

As to `Cn1ncc(C(=O)N2CC(F)C2)c1C(=O)Nc1ccn2nc(-c3cccnc3)nc2c1`, the melting point fell in the range of 247 to 249 °C.

As to `O=C1CCCc2c(-c3ccncc3)[nH]c(-c3ccccc3)c21`, the melting point was 259 to 260 °C.

In turn, `CCCc1ccc(-c2ccc3c(c2)C=C(C(=O)Nc2ccc(CN(C)C4CCOCC4)cc2)CCS3(=O)=O)cc1` displayed a melting point of 247 to 250 °C.

In turn, `COC(=O)c1cc(N2C(=O)C3=C(CCCC3)C2=O)ccc1Cl` came in with a melting point of 113 to 115 °C.

Regarding `CC1Cc2nc(-c3ccccc3)[nH]c(=O)c2CC1S(=O)(=O)c1ccccc1` (centres undefined), the melting point stood at 247 °C.

In turn, `O=C1C(CCO)Oc2ccc(F)cc2N1Cc1cccc([N+](=O)[O-])c1` (centres undefined) registered a melting point of 110 to 112 °C.

Take `CCCCCC[C@@H](F)COc1cnc(-c2ccc(CCCCC)c(F)c2F)nc1`: the melting point was 74.7 °C.

In the case of `CC(C)(C)OC(=O)c1cc(OCc2ccccc2)c(C(=O)c2c(OCc3ccccc3)cccc2C(=O)O)c(OCc2ccccc2)c1`, the melting point fell in the range of 151 to 156 °C.

Regarding `CO[Si](OC)(OC)c1ccc(C#Cc2ccc(C#Cc3ccc([Si](OC)(OC)OC)cc3)cc2)cc1`, the melting point fell in the range of 164 to 166 °C.

`CC(C)(C)OC(=O)C(ON1C(=O)c2ccccc2C1=O)c1ccccc1` (centres undefined) registered a melting point of 121 to 122 °C.

`CC(SC#N)C(=O)N(CC(=O)OC(C)(C)C)C1CCCC1` (centres undefined) had a melting point of 76 to 78 °C.

`CCCCCCCC(Oc1ccc(C(C)CC)cc1)C(=O)Nc1c(-c2ccccc2)nc2ccccc2c1C(=O)OC` (centres undefined) returned a melting point of 89 to 91 °C.

In turn, `O=C1CCC(CN2C(=O)C3(COc4cc5c(cc43)CCO5)c3ccccc32)N1` (centres undefined) displayed a melting point of 133 to 136 °C.

In turn, `CCCCCCCCCCCCCCCCc1ccc(S(=O)(=O)Nc2nncs2)cc1` yielded a melting point of 118 to 119 °C.

For `OCc1csc(Cl)c1Cl`, the melting point is 63 to 65 °C.

As for `CN1CC2CC1CN2c1ccc(NC=C2C(=O)NC(=O)c3ccc(I)cc32)cc1` (centres undefined), the melting point is 210 to 211 °C.

Molecule `Nc1nc2nc(SCc3ccccc3)nc(Cl)c2s1` yielded a melting point of 217 to 218 °C.

`CC(=O)c1c(-c2ccncc2)[nH]c(-c2ccnc3ccccc23)c1C` showed a melting point of 237 to 239 °C.

In the case of `O=C(OCc1ccccc1)c1ccc2[nH]ccc2c1`, the melting point is 127 to 129 °C.

With `COc1ccccc1C=CCCCCCC(=O)O`, the melting point fell in the range of 42 to 43 °C.

`CS(=O)(=O)c1ccc(-c2cnn(-c3ccc(F)c(F)c3)c(=O)c2-c2ccc(F)cc2)cc1` registered a melting point of 109 to 110 °C.

On to `CC(C)Oc1cc(O)c2c(=O)cc(Sc3ccc(O)cc3)oc2c1`, for which the melting point was 205 to 207 °C.

The molecule `CCCn1c(=O)c2c(nc(/C=C/c3ccc(Cl)c(Cl)c3)n2C)n(CCC)c1=O` came in with a melting point of 125 to 136 °C.

`CCOC(=O)CCc1cc(C(=O)c2cccc(C(=O)OCC)c2)ccc1O`: the melting point lay in the range of 68 to 70 °C.

On to `O=C(NC/C=C\COc1cc(CN2CCCCC2)ccn1)NC1CCC1`, for which the melting point lay in the range of 130 to 132 °C.

`O=C(Cc1ccccc1)Nc1ccc(-n2nc(C3CC3)cc2C2CC2)cc1`: the melting point fell in the range of 133 to 138 °C.

As for `COC(=O)COC(=O)COc1ccc([N+](=O)[O-])cc1`, the melting point was 88 to 90 °C.

For the molecule `C=C(C)C(=O)OCCCCCCOc1ccc(C(=O)O)cc1`, the melting point was determined as 83 °C.

Turning to `O=C1CCC(c2ccc(Cl)cc2)c2ccccc2N1` (centres undefined), the melting point lay within 209 to 212 °C.

Take `CCCC(NC(=O)C1CC(=O)c2cc(F)ccc2O1)c1ccccc1` (single isomer, unassigned; (+)): the melting point came to 138 °C.

Consider `CCCCc1nc2c(c(=O)[nH]1)CN(C(=O)OCC[Si](C)(C)C)CC2`, for which the melting point fell in the range of 152 to 155 °C.

Molecule `Cc1cc(-c2csc(N)n2)on1` displayed a melting point of 208 to 210 °C.

In the case of `COc1cc(OC)cc(-c2nnc(-c3cc(OC)cc(OC)c3)o2)c1`, the melting point fell in the range of 167 to 170 °C.

As to `CC(=O)OC1CC(C)(C)N(OC(=NC2CCCCC2)N(C(=O)c2ccccc2)C2CCCCC2)C(C)(C)C1`, the melting point was 147 to 152 °C.

Take `CCOC(=O)COc1c(OC)cc(Cl)c2c1CN1CCc3cc(OC)c(O)cc3C1C2` (single isomer, unassigned; (-)): the melting point came out at 132 °C.

`CCc1nc2c(-c3ccc(Cl)cc3Cl)nccn2c1C(C)O` (centres undefined) showed a melting point of 165 to 166 °C.

Turning to `O=C(O)c1cn(C2CC2)c2nc(N3Cc4cccc(CO)c4C3)c(F)cc2c1=O`, the melting point is more than 300 °C.

With `Nc1ccc(C(=O)c2cnc(NC3CCCCC3)s2)cc1[N+](=O)[O-]`, the melting point lay in the range of 245 to 250 °C.

The molecule `O=C(C=Cc1ccccc1S(=O)(=O)Nc1ccccc1)NO` came in with a melting point of 205 to 206 °C.

Turning to `CNC(=O)[C@H](Cc1ccc(OC)cc1)NC(=O)[C@H](CC(C)C)N[C@H](CCC(=O)NCc1ccccc1)C(=O)O`, the melting point lay within 104 to 108 °C.

On to `Cc1ccc(S(=O)(=O)NC(=O)C(C)(NC=O)C(C)C)cc1` (centres undefined), for which the melting point lay in the range of 131 to 135 °C.

With `CCN(CC)C(=O)c1nc(C=Cc2ccc(OC)cc2)no1`, the melting point is 69 to 70 °C.

In turn, `CC(CSC#N)n1nnc2cc3c(=O)n(C4CC4)nnc3cc2c1=O` (centres undefined) had a melting point of 178 to 180 °C.

For `O=C(O)c1ccc(COc2cccc(-c3c(-c4ccccc4)cnc4c(C(F)(F)F)cccc34)c2)cc1`, the melting point lay within 108 to 112 °C.

Molecule `COC(=O)c1cccc(S(=O)(=O)Cc2c(O[C@H](Cn3ccnc3)c3ccccc3)ccc3c2CCCC3=O)c1` came in with a melting point of 85 °C.

For `CCOc1ccc(-n2c(N)cc(=O)[nH]c2=S)cc1`, the melting point fell in the range of 222 to 225 °C.

`Cc1ccc(C)c2c1CCC2=O` gave a melting point of 70 °C.

`COc1cc2ncnc(NC3=CC(=O)C(N4CCOCC4)=CC3=O)c2cc1OC` gave a melting point of 249 to 250 °C.

Consider `CC1CN(c2ncc(C(=O)N(C)c3cccc(C(F)(F)F)c3)c(N)n2)C(=O)N1` (centres undefined), for which the melting point is 237 to 238 °C.

Regarding `Cc1nc(N)oc1-c1cccc2ccccc12`, the melting point is 187 to 189 °C.

As to `Clc1cccnc1-c1cc(OCCc2ccccn2)c2[nH]nc(Br)c2c1`, the melting point was more than 250 °C.

The molecule `Cc1c(-c2c[nH]c3c(-c4ccccc4)cccc23)nc2ccc(F)cc2c1C(=O)O` gave a melting point of 148 to 150 °C.

As for `CN(C)C(=O)Cn1c(-c2cccc(C(F)(F)F)c2)nc2cccnc21`, the melting point lay within 136 to 138 °C.

Take `Cc1ccc(S(=O)(=O)NCCN(CCNS(=O)(=O)c2ccc(C)cc2)Cc2ccccc2)cc1`: the melting point fell in the range of 87 to 91 °C.

Regarding `Nc1nc2ccccc2c2c1ncn2CCCCCC(=O)c1ccccc1`, the melting point lay in the range of 163 to 165 °C.

In turn, `COc1cc2c(cc1OC)CN(CCc1ccc(NC(=O)c3cccc4c(=O)c5cccc(F)c5[nH]c34)c(C)c1)CC2` yielded a melting point of 210 °C.

The molecule `O=C(Nc1n[nH]c(=S)s1)NC(Cc1ccccc1)C(=O)NCc1cccc2ccccc12` (centres undefined) came in with a melting point of 234 to 235 °C.

As to `Cc1c(NC(=O)CCCCc2ccc(F)cc2)ccc2cc(CN3CCCC3)cnc12`, the melting point was 137 to 138 °C.

Regarding `COc1cccc(-c2c(C(=O)O)c(=O)n(C)c3ncccc23)c1`, the melting point fell in the range of 196 to 197 °C.

For the molecule `O=CNc1[nH]c(-c2ccc(F)cc2)nc1-c1ccccc1`, the melting point fell in the range of 245 to 247 °C.

Molecule `O=C(O)C1=Cc2cc(C(F)F)ccc2OC1C(F)(F)F` (centres undefined) had a melting point of 135 to 136 °C.

The molecule `CCCCc1nc(C(C)(C)O)c(C(=O)O)n1Cc1ccc(-c2ccccc2C(=O)OC(C)(C)C)cc1` gave a melting point of 158 to 159 °C.

As to `CNCCCNC(=O)[C@@H]1CCCN1S(=O)(=O)c1ccc(Cl)c(COc2cccc3c(C)cc(C)nc23)c1Cl`, the melting point was found to be 85 °C.

As for `COC(=O)c1ccc(OC)c(NC(=N)c2ccc(F)cc2)c1`, the melting point worked out at 120 °C.

In turn, `CCOC(=O)C(C)Oc1ccc(OCc2ccccc2)cc1F` (centres undefined) showed a melting point of 63 °C.

Turning to `CCCCCCCCc1ccc(OCC(=O)Cn2ccc3ccccc32)cc1`, the melting point worked out at 65 °C.

As to `CCN(CC)c1nc(C(C)(C)C)nn1-c1c([N+](=O)[O-])cc(C(F)(F)F)cc1[N+](=O)[O-]`, the melting point was in the range of 64 to 65 °C.

`COc1ccc(-c2nc(C(=O)NCCc3ccccn3)sc2-c2ccc(OC)cc2)cc1` gave a melting point of 130 to 132 °C.

In the case of `CCCCCc1c(C(C)C)nc(C(C)C)c(CO)c1-c1cccc(O)c1`, the melting point was in the range of 121 to 122 °C.

Consider `Cc1[nH]cnc1CC1CCc2[nH]c3c(F)cccc3c2C1=O` (centres undefined), for which the melting point lay in the range of 135 to 140 °C.

As to `Cc1nncn1-c1ccc(Cl)cc1C(=O)c1ccccc1Cl`, the melting point is 148 °C.

In the case of `CC(C)(C)OC(=O)c1ccccc1CNC(=O)C1Cc2ccccc2N1S(=O)(=O)c1ccc(-c2cccc(C(F)(F)F)c2)cc1` (centres undefined), the melting point stood at 68 °C.

`COc1cccc(C(=O)N(C)Cc2cccc3c2C(=O)N(C2CCC(=O)NC2=O)C3=O)c1` (centres undefined) showed a melting point of 216 to 218 °C.

As to `CCOC(=O)C1=C(C)Nc2ccnc(OC(C)C)c2C1c1ccccc1` (centres undefined), the melting point lay in the range of 136 to 137 °C.

`O=C(O)c1ccc(Cc2ccc([N+](=O)[O-])cc2)cn1` returned a melting point of 178 to 182 °C.

In turn, `COc1cccc(OS(=O)(=O)c2ccc(N3CCN(C)C3=O)cc2)c1` had a melting point of 111 to 113 °C.

With `CCCCCCCNC(=O)N(C)c1cccc(-c2ccc(C=C(C)C(=O)O)cc2OCC)c1`, the melting point worked out at 123 °C.

In turn, `O=C(CCCN1CCN(c2ccccn2)CC1)c1cccnc1` came in with a melting point of 89 °C.

Regarding `O=C(c1cccs1)N(CCCSc1ccncc1)c1ccccc1`, the melting point fell in the range of 66 to 67 °C.

On to `Cc1nc(CO)c2n1-c1ccc(Cl)cc1C(c1ccccc1F)=NC2`, for which the melting point fell in the range of 233 to 235 °C.

`C=C(F)C(=O)Oc1c(Br)cc(C#N)cc1Br` registered a melting point of 135 to 138 °C.
